Consider 3 compounds from patent US10311582B2, “Image processing apparatus and method for evaluating objects in an image” (Sony Corporation, priority 2010, dated 2019).

The series relates to cultured cardiomyocytes. In words: Pulsations of cultured cardiomyocytes before and after drug administration, by motion detection on moving images (drug evaluation apparatus). Format: cell-based. The following applies: for interval / timing of the pulsations (peak interval, rhythm of the pulsations): before vs after drug administration (after a predetermined time elapses), predetermined part of the observation region. Here is the method:
FIG. 24 is a block diagram illustrating a main configuration example of a drug evaluation apparatus. The drug evaluation apparatus 1300 illustrated in FIG. 24 is an apparatus that evaluates the impact (effects, side effects, and the like) of a drug using the motions of the cultured cardiomyocytes 500 to which the drug is administered.
The imaging unit 1101 images the cultured cardiomyocytes 500 before drug administration and after drug administration.
More specifically, the evaluation index data generating unit 1303 performs, for example, between frame images of the evaluation object image data which are the moving images of the cultured cardiomyocytes 500, motion detection (generation of motion vectors) of the cultured cardiomyocytes 500 for each of the blocks which are partial regions into which the entire region of the frame image is divided. That is, the evaluation index data generating unit 1303 performs the motion detection of each of the blocks for a predetermined duration (for a predetermined number of frames). This duration may be a time of the moving images imaged by the imaging unit 1101 or may be shorter than the time.
The evaluation index data generating unit 1303 further obtains a motion amount (the length of the motion vector) of each of the generated motion vectors. That is, the evaluation index data generating unit 1303 generates the motion amounts of each of the frames of each of the blocks for a predetermined duration.
When the motion amounts of the frames of a certain block obtained by the evaluation index data generating unit 1303 are arranged in time series, for example, the graph shown in FIG. 25 is obtained. FIG. 25 is a diagram showing a form of a change in the motion amount of a certain block with respect to time obtained by the evaluation index data generating unit 1303, that is, an example of a form of the pulsations of cells.
In the graph of FIG. 25, the horizontal axis represents the elapsed time (the number of frames), and the vertical axis represents the motion amount (pixels/frame). A curve 1311 (before) represents the pulsations of the cultured cardiomyocytes 500 before drug administration, and a curve 1312 (after) represents the pulsations of the cultured cardiomyocytes 500 after drug administration. In addition, in the graph of FIG. 25, a waveform of a single pulsation (a contraction and a relaxation) is shown.
The pulsations of cardiomyocytes include contractions and relaxations, and in the curve 1311 and the curve 1312, the crest formed on the left means a “contraction” operation, and the crest formed on the right means a “relaxation” operation. A point P1-1 represents the peak of the contraction of the curve 1311 (before), and a point P1-2 represents the peak of the relaxation of the curve 1311 (before). A point P2-1 represents the peak of the contraction of the curve […] (after), and a point P2-2 represents the peak of the relaxation of the curve 1312 (after).
FIG. 31 is a diagram showing an example of forms of pulsations before and after drug administration. All the 8 graphs shown in FIG. 31 are observation results of forms (changes in the motion amount absolute value with respect to time) of pulsations of a predetermined part in an observation region of the cultured cardiomyocytes 500. The horizontal axis represents the time (sec), and the vertical axis represents the motion amount absolute value (pixcel/frame) between frames. That is, the amplitudes shown in each of the graphs represents the pulsations of the cultured cardiomyocytes 500.
The graphs on the left of FIG. 31 represent forms of the pulsations before drug administration, and the graphs on the right represent forms of the pulsations after drug administration (after a predetermined time elapses after the administration).
In addition, FIG. 32 is a diagram showing an example of forms of variations of the pulsations before and after drug administration. […]

[1] abbreviates: FIG. 31, before vs after drug administration.
Where [2] appears, read: FIG. 32, overlapped pulsations after drug administration.

Take `CC(C)NCC(O)c1ccc(NS(C)(=O)=O)cc1` (racemic) [DL-sotalol]: under setting [1], the “motion amount absolute value at the peaks” value is on record as “becomes unstable (has variations)” and the “waveform of the relaxation (the width of the pulsation)” value is recorded as “changes (becomes unstable)”. Further, the “interval / timing of the pulsations (peak interval, rhythm of the pulsations)” value (“interval / timing of the pulsations” below) (FIG. 31) was “the timing of the pulsation becomes unstable”. Moreover, under setting [2], the “variations of the height of the peak in the waveform of the contraction” value is on record as “also has significant variations”; the “variations of the waveform of the relaxation (magnitude, time and number of appearance of the peak, width (QT elongation))” value is listed as “has significant variations”.

Take `CC1(C)[C@@H](O)CC[C@]2(C)[C@H]3C(=O)C=C4[C@@H]5C[C@@](C)(C(=O)O)CC[C@]5(C)CC[C@@]4(C)[C@]3(C)CC[C@@H]12` [18-β-glycyrrhetinic acid]: under setting [1], the “motion amount absolute value at the peaks” value is reported as “become unstable (have variations)”. In addition, the “interval / timing of the pulsations” value (FIG. 31) is reported as “become unstable (have variations)”. Also, under setting [2], the “variations of the height of the peak in the waveform of the contraction” value is reported as “has significant variations”.

Consider `CC(=O)Oc1ccccc1C(=O)O` [aspirin, acetylsalicylic acid], for which, under “FIG. 31”, the “interval / timing of the pulsations” value is recorded as “does not have a significant impact”. Besides, for the setting “FIG. 32, before vs after drug administration”, the “variations of the pulsations (overlapped waveforms of repeated pulsations)” value is recorded as “do not have significant variations”.
